Literature values as cited in patent US11229595B2, “Skin barrier preparation and method therefor” (Johnson & Johnson Consumer Inc., priority 2019, dated 2022).

System: skin
Conditions: eight volunteers, four compounds compared, patches during 24 hours

Row | SMILES | increase of TEWL
1 | CN(C)CCCN1c2ccccc2CCc2ccccc21 [imipramine] | increased the least TEWL
2 | CCCCCCCCC(=O)O [nonanoic acid] | increased the least TEWL
